Assay results reported in the OPERA property sets (Mansouri et al. 2018).

Row | SMILES | logP
1 | CC(C)OP(=O)(OC(C)C)SCc1ccccc1 | 3.34
2 | CC(C)N1C(=O)c2ccccc2NS1(=O)=O | 2.34
3 | CCO/N=C(\OC(=O)c1ccccc1)c1c(OC)ccc(Cl)c1OC | 3.73
4 | CCOP(=S)(OCC)Oc1cc(-c2ccccc2)on1 | 3.73
5 | CCOP(=O)(Sc1ccccc1)Sc1ccccc1 | 3.48
6 | CC12CC1(C)C(=O)N(c1cc(Cl)cc(Cl)c1)C2=O (stereo not drawn) | 3.08
7 | C#CCOS(=O)OC1CCCCC1Oc1ccc(C(C)(C)C)cc1 (stereo not drawn) | 5
8 | Clc1nc(Cl)nc(Nc2ccccc2Cl)n1 | 3.88
9 | OC(c1ccc(Cl)cc1)(c1ccc(Cl)cc1)C(Cl)(Cl)Cl | 5.02
10 | O=C(NC(=O)c1c(F)cccc1F)Nc1cc(Cl)c(F)c(Cl)c1F | 4.56
11 | CC(C)OC(=O)C(C(=O)OC(C)C)=C1SCCS1 | 2.88
12 | CCCOP(=S)(OCCC)SCC(=O)N1CCCCC1C (stereo not drawn) | 4.04
13 | Cc1ccc(S(=O)(=O)Oc2c(C(=O)c3ccc(Cl)cc3Cl)c(C)nn2C)cc1 | 3.9
